From patent publication US20230250096A1, “SUBSTITUTED PHENYL-1H-PYRROLO[2,3-c] PYRIDINE DERIVATIVES” (Janssen Pharmaceutica NV, priority 2021, published 2023)
pIC50: −log10 of the molar value.

system: OCI-AML3 cells; assay: Proliferation assay (spheroid confluence, 8 days), OCI-AML3; type: cell-based, human; settings: Homo sapiens, OCI-AML-3, OCI-AML3; read-out: spheroid assay_OCI-AML3 IC50
Outline: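 Absolute IC50 derived from spheroid confluence imaged on day 8, scaled between DMSO (0%) and a cytotoxic low control such as 1 μM staurosporin, fitted with variable slope, bounds fixed at 0 and 100%. Seeding 200 cells/well (300 for KO-52), ultra-low attachment plates, 0.3% DMSO, 37° C.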

Row | SMILES | pIC50
1 | Cc1cncc2c1c(CC1CCN(CC3CCN(C(=O)CC#N)CC3)C1)cn2-c1ccc(F)cc1C(=O)N(C)C(C)C (single isomer, unassigned) [Compound 60] | 7.89
2 | Cc1cncc2c1c(C[C@@H]1CCN(CC3CCOCC3)C1)cn2-c1ccc(F)cc1C(=O)N(C[C@H](C)O)C(C)C (single isomer, unassigned) [Compound 365b] | 7.96
3 | Cc1cncc2c1c(C[C@H]1CCN(C[C@H]3CC[C@H](NS(C)(=O)=O)CC3)C1)cn2-c1ccc(F)cc1C(=O)N(C)C(C)C (single isomer, unassigned) [Compound 69] | 7.68
4 | CNC(=O)[C@H]1CC[C@H](CN2CCC(Cc3cn(-c4ccc(F)cc4C(=O)N(C)C(C)C)c4cncc(C)c34)C2)CC1 (single isomer, unassigned) [Compound 70] | 7.17
5 | Cc1cncc2c1c(C[C@H]1CCN(CC3CCOCC3)C1)cn2-c1ccc(F)cc1C(=O)N(C)C(C)C (single isomer, unassigned) [Compound 43] | 7.64
6 | CC(=O)N1CCC(CN2CC(Cc3cn(-c4ccc(F)cc4C(=O)N(C)C(C)C)c4cncc(C)c34)C2)CC1 [Compound 63] | 6.92
7 | COCC(=O)N1CCC(CN2CCC(Cc3cn(-c4ccc(F)cc4C(=O)N(C)C(C)C)c4cncc(C)c34)C2)CC1 (single isomer, unassigned) [Compound 59] | 7.92
8 | Cc1cncc2c1c(C[C@H]1CCN([C@@H](C)C3CCOCC3)C1)cn2-c1ccc(F)cc1C(=O)N(C)C(C)C (single isomer, unassigned) [Compound 49b] | 8.15
